Measurements reported in patent publication US20220155322A1, “USE OF NATRIURETIC PEPTIDES TO ASSESS AND TREAT ACUTE KIDNEY INJURY” (Mayo Foundation for Medical Education and Research, priority 2019, published 2022).

Columns and labels:
Assay type in all cases: cell-based
[1] = tested on: human primary renal proximal tubular epithelial cells (HRPTC); assay: Oil immersion induced hypoxia/reoxygenation (H/R) apoptosis, Caspase 3/7 IncuCyte live imaging
Description: Oil Immersion Induced Hypoxia/Reoxygenation in vitro: HRPTC (ScienCell Research Laboratories; Carlsbad, Calif.) were seeded in 96-well plates and cultured for 1 day until 70-80% confluence. Passages 3-5 were used for experiments. Caspase 3/7 green apoptosis assay agent (Essen BioScience; Ann Arbor, Mich.) was added to the culture medium for detection of apoptosis. Plates were then transferred to a time-lapsed, live imaging system IncuCyte (Essen BioScience) for apoptosis monitoring for a total of 24 hours. H/R in cells was mimicked with mineral oil (Sigma, St Louis, Mo.) immersion (Meldrum et al., J Surg Res, 99:288-293, 2001). Cells were immersed in oil for 2 hours, washed twice, and placed in fresh medium containing vehicle (H/R group) or drugs. ANP, BNP, and CRRL269 were used at concentrations of 10^−8, 10^−7, or 10^−6 M. PKG (an important cGMP binding protein) activating analogue 8-pCPT-cGMP (Sigma; St. Louis, Mo.), which is specific for PKG and has low affinity for phosphodiesterases, was used at concentrations of 10^−6, 10^−5, or 10^−4 M. Cells were treated with 10^−6-, 5×10^−6-, or 1.5×10^−5 M PKG inhibitor KT-5823 (Abcam; Cambridge, Mass.) for 30 minutes before 10^−6 M CRRL269 was added. Cells without H/R stimulation were labeled as the negative control (Neg Ctrl) group. Apoptosis signals (e.g., apoptosis object counts) were analyzed with software provided by IncuCyte.

[2] = tested on: human primary aortic vascular smooth muscle cells (HASMC); assay: Intracellular calcium under ANGII stimulation (Fura-2); details: pretreatment at 10^−9 or 10^−7 M for 5 minutes, ANGII 10^−8 or 10^−7 M
Description: Measurements of Intracellular Calcium in Vascular Smooth Muscle Cells: HASMC (ScienCell Research Laboratories; Carlsbad, Calif.) were cultured and maintained as instructed by the manufacturer. Cells at passage 4 or 5 were used for experiments. Calcium imaging was performed as described elsewhere (Chai et al., Cardiovasc Res, 100:151-159, 2013). Briefly, cells were seeded on a 25 mm round cover glass (Fisher Scientific; Pittsburgh, Pa.) at a density of 5×10^4 cells per slide. The slides had been pretreated with 0.5 N NaOH for 8 hours, rinsed with water, and sterilized before use. After overnight culturing, the slides with cells were assembled in a MS-02 Chamber (ALA Scientific Instrument; Farmingdale, N.Y.) and loaded with 3 μM fura-2 AM (Invitrogen; Carlsbad, Calif.) for 30 minutes in a 37° C. incubator. The chamber was then placed on the stage of an inverted Olympus IX71 microscope (Olympus America Inc.; Waltham, Mass.). The cells were maintained in 1 mL HASMC medium and treated with or without ANP, BNP, or CRRL269 at concentration of 10^−9 or 10^−7 M for 5 minutes before perfused with 5 mL medium containing ANGII (10^−8 or 10^−7 M). Intracellular Ca2^+ fluorescence signals were measured as a ratio of fluorescence intensities at 510 nm from excitations of 340/380 nm, using a Hamamatsu ORCA-R2 CCD camera with a Sutter LB-LS/17 light source. Baseline fluorescence was recorded after 5 minutes of treatment, and fluorescence images were acquired continuously during the ANGII perfusion. Background fluorescence was subtracted and the calcium signal (F) was normalized to baseline fluorescence (FO) and expressed as a ratio (F/FO) using MetaFluor software (Olympus America Inc.).

[3] = tested on: human renal fibroblasts (HRF); assay: Human renal fibroblast proliferation by cell counting; details: CNP at 10^−7 M every 24 hours, cell count at 72 hours
Description: Human Renal Fibroblasts Proliferation by Cell Counting: Human renal fibroblasts (HRF, Cell Biologics; Chicago, Ill.) were counted and seeded into 48-well plates with complete medium, and then incubated at 37° C., 5% CO2 overnight. The culture medium was replaced with fresh medium containing PBS or CNP at concentrations of 10^−8 or 10^−7 M, and cells were cultured for 72 hours. Fresh CNP was added at 24 and 48 hours. At 72 hours, HRF were trypsinized, stained with 0.2% trypan blue, and counted using a Cedex XS Analyzer (Roche; Indianapolis, Ind.).

Nc1nc2c(nc(Sc3ccc(Cl)cc3)n2C2O[C@@H]3COP(=O)(O)O[C@H]3[C@H]2O)c(=O)[nH]1 (stereo in doubt) [8-pCPT-cGMP, reference compound]
apoptosis inhibition in HRPTC after H/R ([1]; 8-pCPT-cGMP at 10^−6 and 10^−5 M): mimicked the apoptosis inhibition

CC[C@H](C)[C@@H]1NC(=O)[C@H](CCCNC(=N)N)NC(=O)[C@H](CC(=O)O)NC(=O)[C@H](CCSC)NC(=O)[C@H](CCCNC(=N)N)NC(=O)CNC(=O)CNC(=O)[C@H](Cc2ccccc2)NC(=O)[C@@H](NC(=O)[C@H](CO)NC(=O)[C@H](CO)NC(=O)[C@H](CCCNC(=N)N)NC(=O)[C@H](CCCNC(=N)N)NC(=O)[C@H](CC(C)C)NC(=O)[C@@H](N)CO)CSSC[C@@H](C(=O)N[C@@H](CC(N)=O)C(=O)N[C@@H](CO)C(=O)N[C@@H](Cc2ccccc2)C(=O)N[C@@H](CCCNC(=N)N)C(=O)N[C@@H](Cc2ccc(O)cc2)C(=O)O)NC(=O)CNC(=O)[C@H](CC(C)C)NC(=O)CNC(=O)[C@H](CO)NC(=O)[C@H](CCC(N)=O)NC(=O)[C@H](C)NC(=O)CNC1=O [ANP, atrial natriuretic peptide, reference compound]
Ca2^+ enhancement by ANGII in HASMC [2]: suppressed

COC(=O)[C@@]1(OC)C[C@H]2O[C@]1(C)n1c3ccccc3c3c4c(c5c6ccccc6n2c5c31)C(=O)N(C)C4 [KT-5823, reference compound]
effect on antiapoptotic effects induced by CRRL269 ([1]; HRPTC, H/R, KT-5823 30 minutes before 10^−6 M CRRL269): abrogated

B-type natriuretic peptide [BNP, reference compound]
Ca2^+ enhancement by ANGII in HASMC [2]: suppressed

C-type natriuretic peptide (GLSKGCFGLKLDRIGSMSGLGC; listed as Homo sapiens) [CNP]
human renal fibroblast (HRF) proliferation [3]: suppressed
